US20050044581A1, “Animals and cells containing a mutated alpha2/omega1 gene” (priority 2003, published 2005)

Tests used:
[1] = test system: WT, HET and KI R217A mice and parent strains; assay: Vogel water-lick conflict; format: in vivo, mouse; conditions: for minimally effective dose (MED), Vogel: IP (doses tested in mg/kg); for anxiolytic-like effect / punished licking, Vogel: R217A knockins (homozygous)
Procedure: Two strains used to generate the mutant mice, C57BU6J (Jackson Laboratories), and 129S6/SvEV (Taconic Farms), were also evaluated. Albino or C57BL/6J-Tyr were also included in the experiments for comparison purposes. Male C57BL/6J (Jackson Laboratories), and 129S6/SvEV (Taconic Farms) mice were received at 8 weeks old in quantities sufficient for each study to be completed in one experiment. Parent strains were housed one week prior to testing. All animals were housed in a temperature and humidity controlled room under a 12L: 12D schedule (lights on @06:00 h). All mice were housed in isolators (3-5/cage) with the exception of C57BU6J mice that were housed on wire racks (12/cage).
On the side of each chamber (1.5 in. above the floor) a module optical lickometer was mounted. The lickometer was used to measure licking from a drink tube attached to a water bottle mounted on the exterior of the chamber. A photo beam was piped via glass rods across a gap at the end of the drink tube. The subject's tongue breaks the beam when it drinks from the tube and each lick was automatically recorded. […] The reduced chamber space limited the animal's activity and directed behavior towards the drink tube during a 10-minute session. The front and back of the test chamber was made of clear Plexiglas. The front door was covered to reduce distractions from inside the test room. The back of the test chamber faced a wall, away from the flow of traffic in the testing room, and remained uncovered to provide the opportunity for observations. Shock was delivered between the grid floor and the drink tube using a (Coulbourn) programmable universal shocker for a duration of one second, but terminated immediately when contact between the animal and drink tube was broken.
PROCEDURE: On day one, after 24 hours of water deprivation, experimental subjects were placed in the test chambers and allowed to drink unpunished for a 10-minute training session. Mice were required to complete a 100-150 lick criteria during the training session. Subjects that completed the training criteria prior to the end of the 10-minute session were removed so that drinking was restricted in all subjects to 25% of their total daily intake. […] Immediately after the day one session mice were returned to their home cages and deprived of water and food for an additional 24 hours. On test day two, mice were dosed by intraperitoneal (IP) injection with vehicle or test compound. After a 60 or 120-minute absorption period mice were placed into the test chambers for a 10-minute test session. During the test, shock was delivered on a fixed ratio (FR) 10 schedule. Therefore, after every 10th lick the subject received a mild shock. […] A low number of shock episodes accepted reflects anxiety-related behavior. Standard anxiolytic drugs produce effects that allow mice to overcome the behavioral inhibition and drink despite the shock. […] All data were analyzed using a one-way ANOVA/Dunn's Method.
DRUGS: Pregabalin was dissolved in physiological saline for all experiments. The positive control diazepam was suspended in 2% cremophor in physiological saline. All drugs were dosed in a volume of 10 mL/kg.
C57BL/6J mice were tested at 0.4 mA, C57BL/6J-Tyr mice were tested at 0.1 mA and 129S6/SvEV mice were tested at 0.6 mA. Each dose-response study included a no-shock vehicle control group directly compared to the concurrent vehicle punished-responding group to evaluate the suppression of drinking. […] For all experiments, sedation was noted when both symptoms of ataxia (unsteady gait) and a reduced response to handling were observed after dosing and described as mild, moderate or severe.
WT mice were tested at 0.1 mA, HET mice were tested at 0.4 mA and KI mice were tested at 0.7 InA. Each experiment included a no-shock vehicle control group for direct comparison to the concurrent vehicle punished-responding group to determine percent suppression of drinking.

[2] = test system: R217A mutant lines and background strain mice; assay: Maximal electroshock procedure (MES); format: in vivo, mouse; conditions: for responsiveness to anticonvulsant effects: all background strains, mutant, heterozygous mutant and wildtype (all lines)
Procedure: WT mice were tested at 0.1 mA, HET mice were tested at 0.4 mA and KI mice were tested at 0.7 InA. Each experiment included a no-shock vehicle control group for direct comparison to the concurrent vehicle punished-responding group to determine percent suppression of drinking. […] Sedation was noted by the observer as previously described. […] Electroshock in mice was delivered using corneal electrodes with varied electroshock intensity. Current was delivered (60 Hz sinusoidal current, 11 to 17 mA baseline to peak vs. 50 mA for 0.2 s) using a constant-current stimulator (Wahlquist Instruments, Salt Lake City, Utah). The intensities of current necessary to produce tonic extensor seizures for each mouse strain and mutant lines in all of the mice were determined. These currents were then used for further testing of mice with pregabalin. All dose-response testing was conducted at the previously determined time of peak drug effect. Groups of 10 mice each were give various intraperitoneal doses of pregabalin dissolved in 0.9% saline, diazepam (veh) or phenytoin and given in a volume of 10 ml/kg of body weight. […] At least four groups of mice and each animal was employed once. The animals, pretreated with different doses of the tested drugs, were challenged with one electroshock at previously determined times of peak drug effect (pregabalin: 120 min; diazepam: 60 min; phenytoin; 60 min)

[3] = test system: α2/δ1 in mouse brain membranes; assay: 3H gabapentin binding to whole mouse brain membranes, R217A mutant vs wildtype; conditions: R217A mutant mouse in comparison to wildtype mice; tracer 3H gabapentin; FIG. 3
Procedure: Membranes were prepared from whole mouse brains. […] Total binding was determined in the absence of competitor. Non-specific binding was determined in the presence of 10 μM unlabeled pregabalin.

[4] = test system: α2/δ1 R217A wild type, heterozygous and homozygous mice; assay: Formalin foot-pad procedure (formalin-induced hyperalgesia); format: in vivo, mouse; conditions: PO 120 minutes prior to testing, FIG. 4
Procedure: Male α2/δ1 R217A wild type, heterozygous, and homozygous mice, weighing 19-40 grams, were used for testing. Animals were maintained on a 12 hour light/dark cycle with food and water available ad libitum. Animals were food deprived overnight the day before testing. On test day, animals were acclimated to the observation chambers for approximately 60 min. The observation chambers were eight inch square boxes consisting of solid, acrylic plastic mirrors for the floor and 3 walls. The fourth wall was clear acrylic that allowed for observation. Animals were dosed PO with either vehicle or pregabalin, 120 minutes prior to testing at a dose volume 10 ml/kg. At test time, animals received a 25 μL injection of a 5% formalin solution in water in the plantar surface of the left hind foot. […] These behaviors were timed using a hand-held stopwatch and recorded at 5 min intervals. Data was analyzed by the two distinct phases of responding. Early phase responding included Minutes 0-10, and late phase responding included Minutes 11-45. The total time spent licking by drug-treated animals in each phase was compared to the total time spent licking by vehicle-treated animals.

[5] = test system: α2/δ1 R217A wild type and homozygous mice; assay: Tail Suspension Test (TST); format: in vivo, mouse; conditions: R217A mutant vs wildtype mice; dosed 120 minutes prior; FIG. 5
Procedure: Male α2/δ1 R217A wild type and homozygous mice, weighing 22-35 grams, were used for testing. Animals were maintained on a 12 hour light/dark cycle with food and water available ad libitum. Animals were food deprived overnight the day before testing. On test day, animals were placed by groups of 8 into holding cages to acclimate for sixty minutes prior to dosing. Vehicle or pregabalin was administered 120 minutes prior to testing at a dose volume of 10 mL/kg. At test time, a piece of transparent tape was placed around the distal portion of the tail. The tape was then attached to a hook connected to an electro-mechanical apparatus that recorded the amount of time a mouse moved and the force used during movement. The hook was located at the top of a 24×18 cm testing chamber. Animals were completely suspended in air approximately 5 cm off the floor of the chamber for six minutes. Mean time of struggling and force of movement were then calculated for each group of eight.
Animals are placed by groups of eight into holding cages to acclimate for thirty to sixty minutes prior to dosing. Treatments are generally administered 60 to 120 minutes prior to testing, although this also varies with specific compounds. At test time, a piece of scotch tape is placed around the distal portion of the tail. […]

[6] = test system: R217A knock-in and wild-type mice; assay: Chronic constriction injury (CCI)-induced static allodynia, von Frey hairs; format: in vivo, mouse; conditions: for efficacy in CCI-induced allodynia: 30-100mg/kg, p.o.; for effect on CCI-induced punctate allodynia: sub cutaneous 30-100mg/kg, FIG. 8
Excerpt: Animals were placed in an anaesthetic chamber and anaesthetised with a 2% isofluorane O2 mixture. The right hind thigh is shaved and swabbed with 1% iodine. Animals were then transferred to a homeothermic blanket for the duration of the procedure and anaesthesia maintained during surgery via a nose cone. The skin was cut along the line of the thigh bone. The common sciatic nerve was exposed at the middle of the thigh by blunt dissection through biceps femoris. Proximal to the sciatic trifurcation, about 5mm of nerve was freed by inserting forceps under the nerve and the nerve gently lifted out of the thigh. The forceps were gently opened and closed several times to aid clearance of the fascia from the nerve. Suture was pulled under the nerve using forceps and tied in a simple knot until slight resistance was felt and then double knotted. The procedure was repeated until 3 ligatures (4-0 silk) were tied loosely around the nerve with approx 1 mm spacing. The incision was closed in layers and the wound treated with topical antibiotics.
Animals were habituated to wire test cages prior to the assessment of allodynia. Static allodynia was evaluated by application of von Frey hairs (Stoelting, Wood Dale, Ill., U.S.A.) in ascending order of force ([…], 0.4, 0.6, 1.0, 1.5 and 2.0 g) to the plantar surface of hind paws. Each von Frey hair was applied to the paw for a maximum of 6 seconds, or until a withdrawal response occurred. Once a withdrawal response to a von Frey hair was established, the paw was re-tested, starting with the filament below the one that produced a withdrawal, and subsequently with the remaining filaments in descending force sequence until no withdrawal occurred. Each animal had both hind paws tested in this manner. The lowest amount of force required to elicit a response was recorded as paw withdrawal threshold (PWT) in grams. […]
(§1) Following drug administration PWT were re-assessed for up to 4 h. The static allodynia data is expressed as median force (g) required to induce a paw withdrawal in 6-7 animals per group (vertical bars represent 1st and 3rd quartiles) *P<0.05, **P<0.01***P<0.005 (Mann Whitney U test) from vehicle treated group at each time point.
as §1, with “It was examined whether pregabalin produced an anti-allodynic action in both the knock-in and wild-type mice. […] Baseline (BL) paw withdrawal thresholds (PWT) to von Frey hairs were assessed. Following” for “Following”

SMILES | minimally effective dose (MED), Vogel ([1]; 129S6/SvEv, shock 0.6 mA) | minimally effective dose (MED), Vogel ([1]; C57BL/6J, shock 0.4 mA) | minimally effective dose (MED), Vogel ([1]; C57 albino, shock 0.1 mA) | minimally effective dose (MED), Vogel ([1]; Hets, shock 0.4 mA) | minimally effective dose (MED), Vogel ([1]; Knockins, shock 0.7 mA) | anxiolytic-like effect / punished licking, Vogel [1] | minimally effective dose (MED), Vogel ([1]; Wild Type, shock 0.1 mA) | responsiveness to anticonvulsant effects ([2]; FIG. 9) | gabapentin binding to brain membranes [3] | efficacy on formalin-induced hyperalgesia [4] | effect in Tail Suspension Test [5] | efficacy in CCI-induced allodynia ([6]; knock-in animals) | effect on CCI-induced punctate allodynia ([6]; knock-in mice) | efficacy in CCI-induced allodynia ([6]; wild type mice) | effect on CCI-induced punctate allodynia ([6]; wild type mice) | increase in punished responding @ 100, Vogel ([1]; Knockins, dose 100) | anxiolytic-like effect / punished licking, Vogel ([1]; listed as Pregabalin) | potency in protecting against seizures ([2]; mutant mice vs wild-type, heterozygous or back-ground strains) | anticonvulsant effects ([2]; −/− mice as compared to +/+ mice, FIG. 9) | sensitivity to effects in MES ([2]; −/− mice vs +/+ mice, FIG. 9)
CN1C(=O)CN=C(c2ccccc2)c2cc(Cl)ccc21 [diazepam] | inactive | 3.2 | 3.2 | 3.2 | inactive | Diazepam (+ control) failed to produce an anxiolytic-like effect in R217A knockins. Data suggests 129S6-parent strain's genotype may be responsible for pharmacological profile of diazepam | 3.2 | fully responsive | – | – | – | – | – | – | – | – | – | – | – | –
NCC1(CC(=O)O)CCCCC1 [gabapentin, 1-(aminomethyl)cyclohexaneacetic acid] | – | – | – | – | – | – | – | – | reduced, or greatly abolished | – | – | – | – | – | – | – | – | – | – | –
O=C1NC(=O)C(c2ccccc2)(c2ccccc2)N1 [phenytoin] | – | – | – | – | – | – | – | fully responsive | – | – | – | – | – | – | – | – | – | – | – | –
CC(C)C[C@H](CN)CC(=O)O [pregabalin] | 32 | 10 | 10 | 10 | inactive | does not produce a statistically significant increase | 32 | – | – | reduced efficacy | exerts its sedative and/or anxiolytic effect in TST through the α2/δ1 polypeptide | failed to demonstrate any efficacy | no effect | typical efficacy | significant blockade | non-significant | Pregabalin did not produce a significant anxiolytic-like effect in R217A knockins, and no evidence was obtained relating phenotype to particular parent strain | less potent | reduced | less sensitive
